From US9545389B2, “Baclofen and acamprosate based therapy of macular degeneration disorders” (PHARNEXT, priority 2012, dated 2017)

Columns and labels:
Assay type in all cases: cell-based
[1] = tested on: Rat dopaminergic neurons (mesencephalic culture); assay: TH neurons survival test after 48 h 6-OHDA injury on dopaminergic neurons; settings: for In vitro 6OHDA resistance: TH neurons survival after 48 h 6-OHDA (20 μM) injury
Experimental: Rat dopaminergic neurons were cultured as described by Schinelli et al. (1988). Pregnant female rats of 15 days gestation were killed by cervical dislocation (Rats Wistar; Janvier) and the foetuses removed from the uterus. The embryonic midbrains were removed and placed in ice-cold medium of Leibovitz (L15; PanBiotech) containing 2% of Penicillin-Streptomycin (PS; PanBiotech) and 1% of bovine serum albumin (BSA; PanBiotech). Only the ventral portions of the mesencephalic flexure were used for the cell preparations as this is the region of the developing brain rich in dopaminergic neurons. The midbrains were dissociated by trypsinisation for 20 min at 37° C. (Trypsin EDTA 1×; PanBiotech). The reaction is stopped by the addition of Dulbecco's modified Eagle's medium (DMEM; PanBiotech) containing DNAase I grade II (0.1 mg/ml; PanBiotech) and 10% of foetal calf serum (FCS; Invitrogen). Cells were then mechanically dissociated by 3 passages through a 10 ml pipette and centrifuged at 180×g for 10 min at +4° C. on a layer of BSA (3.5%) in L15 medium. The supernatant was discarded and the cells of pellet were re-suspended in a defined culture medium consisting of Neurobasal (Invitrogen) supplemented with B27 (2%; Invitrogen), L-glutamine (2 mM; PanBiotech) and 2% of PS solution and 10 ng/ml of Brain-derived neurotrophic factor (BDNF, PanBiotech) and 1 ng/ml of Glial-Derived Neurotrophic Factor (GDNF, PanBiotech). Viable cells were counted in a Neubauer cytometer using the trypan blue exclusion test. The cells were seeded at a density of 40 000 cells/well in 96 well-plates (pre-coated with poly-L-lysine (Greiner)) and are cultured at 37° C. in a humidified air (95%)/CO2 (5%) atmosphere. Half of the medium was changed every 2 days with fresh medium. Five to six percents of the neuronal cell population were dopaminergic neurons. […]
Data are expressed in percentage of control conditions (no intoxication, no 6OHDA=100%) in order to express the 6OHDA injury. All values are expressed as mean+/−SEM (s.e. mean) of the 3 cultures (n=6 wells per condition per culture). […]

Rat cortical neurons [2] = assay: Cytoplasmic cytochrome C (CytoC) assay in human amyloid-β1-42 intoxicated cortical neurons; design: key: − and −− intensity of lowering effect of compositions; − and −− intensity of lowering effect of compositions; settings: Aβ1-42 1.25 μM 4 hours; lowering effect
Experimental: (§1) Rat cortical neurons were cultured as described by Singer et al., 1999 [28]. Briefly pregnant female rats of 15 days gestation were killed by cervical dislocation (Rats Wistar) and the fetuses were removed from the uterus. The cortex were removed and placed in ice-cold medium of Leibovitz (L15) containing 2% of Penicillin 10.000 U/ml and Streptomycin 10 mg/ml and 1% of bovine serum albumin (BSA). Cortex were dissociated by trypsin (0.05%) for 20 min at 37° C. The reaction was stopped by the addition of Dulbecco's modified Eagle's medium (DMEM) containing DNase1 grade II (0.1 mg/mL) and 10% of fetal calf serum (FCS). Cells were then mechanically dissociated by 3 serial passages through a 10 ml pipette. Cells were then centrifuged at 515×g for 10 min at 10° C. The supernatant was discarded and the pellet of cells will be re-suspended in a defined culture medium consisting of Neurobasal supplemented with B27 (2%), L-glutamine (0.2 mM), 2% of PS solution and 10 ng/mL of BDNF. Viable cells were counted in a Neubauer cytometer using the trypan blue exclusion test. […]
(§2) Data are expressed in percentage of control conditions (no intoxication, no amyloid=100%) in order to express the amyloid injury. All values are expressed as mean+/−SEM (s.e. mean) of the 3 cultures (n=6 wells per condition). […]

Rat cortical neurons [3] = assay: MetO assay (oxidative stress) in human amyloid-β1-42 intoxicated cortical neurons; design: key: − and −− intensity of lowering effect of compositions; − and −− intensity of lowering effect of compositions; settings: Aβ1-42 1.25 μM 4 hours; lowering effect
Experimental: as §1, §2

Row | Molecule | In vitro 6OHDA resistance [1] | In vitro CytC level (Rat cortical neurons [2]) | In vitro MetO level (Rat cortical neurons [3]) | protection of dopaminergic neurons from 6-OHDA injury ([1]; 1 hour pre-treatment at 1.85 nM, positive control)
1 | CC(=O)NCCCS(=O)(=O)O [Acamprosate] | improvement | − | − | 
2 | NCC(CC(=O)O)c1ccc(Cl)cc1 (stereo not shown) [Baclofen] | improvement | − | − | 
3 | BDNF: Brain-derived neurotrophic factor, used as a positive control (protein, UniProt P23560 19-247, looked up) Neurotrophic factor BDNF …: APMKEANIRGQGGLAYPGVRTHGTLESVNGPKAGSRGLTSLADTFEHVIEELLDEDQKVRPNEENNKDADLYTSRVMLSSQVPLEPPLLFLLEEYKNYLDAANMSMRVRRHSDPARRGELSVCDSISEWVTAADKKTAVDMSGGTVTVLEKVPVSKGQLKQYFYETKCNPMGYTKEGCRGIDKRHWNSQCRTTQSYVRALTMDSKKRIGWRFIRIDTSCVCTLTIKRGR |  |  |  | significantly protected
